Structures are written as SMILES. Some results are limits rather than exact numbers.

The target in the first experiment is PDE10 from pig striatum (Sus scrofa, UniProt A0A287B941). Briefly: Inhibition of PDE10 from pig striatum ([3H]-cAMP SPA). The format is biochemical. To be noted: Table 7; read-out: PDE10 pig IC50. The protocol:
Phosphodiesterase isoenzyme 10 (PDE10) activity was determined in preparations of human recombinant PDE10A and PDE10 from pig striatum, respectively.
Striatum from male hybrid pigs (150 kg) were collected and frozen at −70° C.
At the day of preparation 0.5 g striatum was homogenised in 10 ml 50 mM Tris/Mg-buffer at 4° C. and centrifuged for one hour at 100000 g. The supernatant was removed and the pellet was resuspended in the same buffer, but containing 1% Triton and incubated for 45 min at 4° C. The membrane fraction was applied onto a 5 ml Hi Trap™ QHP column at the Akta-FPLC. After washing the column the bound PDE protein was eluted with an increasing sodium chloride gradient (O mM-500 mM sodium chloride) in 50 mM Tris/Mg-buffer at 4° C. in the presence of 1% Triton. […] The fractions with PDE10-activity were pooled and frozen in aliquots until use at −20° C.
PDE10 activity was determined in a one step procedure in microtiterplates. […] Nonspecific activity was tested without the enzyme. The reaction was initiated by addition of the substrate solution and was carried out at 37° C. for 30 minutes. Enzymatic activity was stopped by addition of 25 μl YSi-SPA-beads (Amersham-Pharmacia). One hour later the mixture was measured in a liquid scintillation counter for microtiterplates (Microbeta Trilux). To pipette the incubation mixture a robot Biomek (Fa. Beckman) is used. […] For determination of IC50 values the Hill-plot, 2-parameter-model, was used.
The phosphodiesterase isoenzyme 10 (PDE10) activity was determined in preparations of rat, pig and guinea pig striatum respectively. Striatum from male Wistar rats (180-200 g), male hybrid pigs (150 kg) and male guinea pigs (CRL (HA), 500 g) respectively were collected and frozen at −70° C.
At the day of preparation 0.5 g striatum was homogenized in 10 ml 50 mM Tris/Mg-buffer at 4° C. and centrifuged for one hour at 100000 g. The supernatant is called the cytosolic fraction and was removed and stored on ice. The pellet was resuspended in the same buffer, but containing 1% Triton and incubated for 45 min at 4° C. Both fractions were independently applied onto a 5 ml Hi Trap™ QHP column at the Akta-FPLC. After washing the columns the bound PDE protein was eluted with an increasing sodium chloride gradient (0 mM-500 mM sodium chloride) in 50 mM Tris/Mg-buffer at 4° C. for the cytosolic fraction and in the presence of 1% Triton for the membrane fraction. […] The fractions with PDE10-activity were pooled and frozen in aliquots until use at −20° C.
PDE10 activity was determined in a one step procedure in microtiterplates. […] Nonspecific activity was tested without the enzyme. The reaction was initiated by addition of the substrate solution and was carried out at 37° C. for 30 minutes. Enzymatic activity was stopped by addition of 25 μl YSi-SPA beads (Amersham-Pharmacia). One hour later the mixture was measured in a liquid scintillation counter for microtiterplates (Microbeta Trilux). To pipette the incubation mixture a robot Biomek (Fa. Beckman) is used. […] For determination of IC50 values the Hill-plot, 2-parameter-model, was used.
As to `COc1ccc2nc(C)c3c(C)nc(-c4cccnc4)n3c2n1` [Example 10, 2-Methoxy-6,7-dimethyl-9-pyridin-3-ylimidazo[1,5-a]pyrido[3,2-e]pyrazine], the IC50 lay in the range of 10 to 100 nM.
For `COc1ccc2nc(C)c3c(C)nc(-c4cc(F)ccc4Cl)n3c2n1` [Example 22, 9-(2-Chloro-5-fluorophenyl)-2-methoxy-6,7-dimethylimidazo[1,5-a]pyrido[3,2-e]pyrazine], the IC50 was less than 10 nM.
For `COc1ccc2nc(C)c3c(C)nc(-c4ccncc4)n3c2n1` [Example 11, 2-Methoxy-6,7-dimethyl-9-pyridin-4-ylimidazo[1,5-a]pyrido[3,2-e]pyrazine], the IC50 lay in the range of 10 to 100 nM.
The same measure, in the same setting: the same measure for `COc1ccc2nc(C)c3c(C)nc(-c4ccc(F)cc4F)n3c2n1` [Example 8, 9-(2,4-Difluorophenyl)-2-methoxy-6,7-dimethylimidazo[1,5-a]pyrido[3,2-e]pyrazine]: 10 to 100 nM; for `COc1ccc2nc(C)c3c(C)nc(-c4cccnc4OC)n3c2n1` [Example 29, 2-Methoxy-9-(2-methoxypyridin-3-yl)-6,7-dimethylimidazo[1,5-a]pyrido[3,2-e]pyrazine]: 10 to 100 nM.
In the case of `COc1ccc2nc(C)c3c(C)nc(-c4cc(Cl)cc(Cl)c4)n3c2n1` [Example 6, 9-(3,5-Dichlorophenyl)-2-methoxy-6,7-dimethylimidazo[1,5-a]pyrido[3,2-e]pyrazine], the IC50 fell in the range of 10 to 100 nM.
Take `COc1ccc2nc(C)c3c(C)nc(-c4cccc(OC)c4F)n3c2n1` [Example 15, 9-(2-Fluoro-3-methoxyphenyl)-2-methoxy-6,7-dimethylimidazo[1,5-a]pyrido[3,2-e]pyrazine]: the IC50 was in the range of 10 to 100 nM.
Consider `CCCc1nc(C)c2c(Cl)nc3ccc(OCC)nc3n12` [Example 2, 6-Chloro-2-ethoxy-7-methyl-9-propylimidazo[1,5-a]pyrido[3,2-e]pyrazine], for which the IC50 is less than 10 nM.
Take `COc1ccc2nc(C)c3c(C)nc(-c4ccc(Cl)c(Cl)c4)n3c2n1` [Example 7, 9-(3,4-Dichlorophenyl)-2-methoxy-6,7-dimethylimidazo[1,5-a]pyrido[3,2-e]pyrazine]: the IC50 fell in the range of 10 to 100 nM.
Take `COc1ccc(-c2nc(C)c3c(C)nc4ccc(OC)nc4n23)c(Cl)c1` [Example 18, 9-(2-Chloro-4-methoxyphenyl)-2-methoxy-6,7-dimethylimidazo[1,5-a]pyrido[3,2-e]pyrazine]: the IC50 was less than 10 nM.

The experiment is the same for the next values; noted with them: Table 8; read-out: PDE10 pig IC50.
Turning to `COc1ccc2nc(C)c3c(C)nc(-c4ccccc4OC(C)C)n3c2n1` [Example 54, 9-(2-Isopropoxyphenyl)-2-methoxy-6,7-dimethylimidazo[1,5-a]pyrido[3,2-e]pyrazine], the IC50 was more than 100 nM.
Same read-out and setting: then `COc1ccc2nc(C)c3c(C)nc(C#CC4CC4)n3c2n1` [Example 97, 9-(Cyclopropylethynyl)-2-methoxy-6,7-dimethylmidazo[1,5-a]pyrido[3,2-e]pyrazine], with 10 to 100 nM; and `COc1ccc2nc(C)c3c(C)nc(-c4ccc(F)cc4OC)n3c2n1` [Example 86, 9-(4-Fluoro-2-methoxyphenyl)-2-methoxy-6,7-dimethylmidazo[1,5-a]pyrido[3,2-e]pyrazine], with 10 to 100 nM.
Still for that read-out and setting: the same measure for `COc1ccc2nc(C)c3c(C)nc(-c4cccs4)n3c2n1` [Example 68, 2-Methoxy-6,7-dimethyl-9-(2-thienyl)imidazo[1,5-a]pyrido[3,2-e]pyrazine]: 10 to 100 nM; for `COc1ccc2nc(C)c3c(C)nc(-c4cccc(Cl)c4)n3c2n1` [Example 48, 9-(3-Chlorophenyl)-2-methoxy-6,7-dimethylimidazo[1,5-a]pyrido[3,2-e]pyrazine]: less than 10 nM.
Turning to `COc1ccc2nc(C)c3c(C)nc(-c4ccc(-c5ccccc5)cc4)n3c2n1` [Example 72, 9-Biphenyl-4-yl-2-methoxy-6,7-dimethylimidazo[1,5-a]pyrido[3,2-e]pyrazine], the IC50 was more than 100 nM.
On the same count and under the same terms, then `COc1ccc2nc(C)c3c(C)nc(-c4cc(Cl)ccc4OC)n3c2n1` [Example 84, 9-(5-Chloro-2-methoxyphenyl)-2-methoxy-6,7-dimethylimidazo[1,5-a]pyrido[3,2-e]pyrazine], with 10 to 100 nM.
Turning to `COc1ccc2nc(C)c3c(C)nc(-c4cccc(OC(F)(F)F)c4)n3c2n1` [Example 63, 2-Methoxy-6,7-dimethyl-9-[3-(trifluoromethoxy)phenyl]imidazo[1,5-a]pyrido[3,2-e]pyrazine], the IC50 fell in the range of 10 to 100 nM.
Still for that read-out and setting: the same measure for `COc1ccc2nc(C)c3c(C)nc(-c4ccsc4)n3c2n1` [Example 56, 2-Methoxy-6,7-dimethyl-9-(3-thienyl)imidazo[1,5-a]pyrido[3,2-e]pyrazine]: 10 to 100 nM; for `COc1ccc2nc(C)c3c(C)nc(-c4ccc(Cl)cc4C(F)(F)F)n3c2n1` [Example 91, 9-[4-Chloro-2-(trifluoromethyl)phenyl]-2-methoxy-6,7-dimethylimidazo[1,5-a]pyrido[3,2-e]pyrazine]: less than 10 nM.
Consider `COc1ccc2nc(C)c3c(C)nc(-c4cccc(Cl)c4Cl)n3c2n1` [Example 89, 9-(2,3-dichlorophenyl)-2-methoxy-6,7-dimethylimidazo[1,5-a]pyrido[3,2-e]pyrazine], for which the IC50 is less than 10 nM.
For the molecule `COc1ccc2nc(C)c3c(C)nc(-c4cccc(C(N)=O)c4)n3c2n1` [Example 93, 3-(2-Methoxy-6,7-dimethylimidazo[1,5-a]pyrido[3,2-e]pyrazin-9-yl)benzamide], the IC50 is less than 10 nM.
For `COc1ccc2nc(C)c3c(C)nc(-c4cc(F)ccc4OC)n3c2n1` [Example 83, 9-(5-Fluoro-2-methoxyphenyl)-2-methoxy-6,7-dimethylimidazo[1,5-a]pyrido[3,2-e]pyrazine], the IC50 is 10 to 100 nM.
Still for that read-out and setting: then `COc1ccc2nc(C)c3c(C)nc(-c4ccoc4)n3c2n1` [Example 58, 9-(3-Furyl)-2-methoxy-6,7-dimethylimidazo[1,5-a]pyrido[3,2-e]pyrazine], with 10 to 100 nM; and `COc1ccc(C#Cc2nc(C)c3c(C)nc4ccc(OC)nc4n23)cc1` [Example 77, 2-Methoxy-9-[(4-methoxyphenyl)ethynyl]-6,7-dimethylimidazo[1,5-a]pyrido[3,2-e]pyrazine], with 10 to 100 nM; and `COc1ccc2nc(NS(C)(=O)=O)c3c(C)nc(CCC(F)(F)F)n3c2n1` [Example 45, N-[2-Methoxy-7-methyl-9-(3,3,3-trifluoropropyl)imidazo[1,5-a]pyrido[3,2-e]pyrazin-6-yl]methanesulfonamide], with 10 to 100 nM.
Regarding `COc1ccc2nc(C)c3c(C)nc(-c4ccc(C#N)cc4)n3c2n1` [Example 74, 4-(2-Methoxy-6,7-dimethylimidazo[1,5-a]pyrido[3,2-e]pyrazin-9-yl)benzonitrile], the IC50 fell in the range of 10 to 100 nM.
Turning to `CCNC(=O)c1cccc(-c2nc(C)c3c(C)nc4ccc(OC)nc4n23)c1` [Example 101, N-Ethyl-3-(2-methoxy-6,7-dimethylimidazo[1,5-a]pyrido[3,2-e]pyrazin-9-yl)benzamide], the IC50 lay within 10 to 100 nM.
Take `COc1ccc2nc(C)c3c(C)nc(-c4ccco4)n3c2n1` [Example 60, 9-(2-Furyl)-2-methoxy-6,7-dimethylimidazo[1,5-a]pyrido[3,2-e]pyrazine]: the IC50 was in the range of 10 to 100 nM.
Consider `COc1cccc(-c2nc(C)c3c(C)nc4ccc(OC)nc4n23)c1` [Example 62, 2-Methoxy-9-(3-methoxyphenyl)-6,7-dimethylimidazo[1,5-a]pyrido[3,2-e]pyrazine], for which the IC50 is less than 10 nM.
In the case of `COc1ccc2nc(C)c3c(C)nc(C#Cc4ccc(F)cc4)n3c2n1` [Example 76, 9-[(4-Fluorophenyl)ethynyl]-2-methoxy-6,7-dimethylimidazo[1,5-a]pyrido[3,2-e]pyrazine], the IC50 was more than 100 nM.

The experiment is the same for the next values; noted with them: Table 9, cells marked pPDE10; read-out: IC50 (nM) (pPDE10).
Turning to `COc1ccc2nc(C#N)c3c(C)nc(-c4ccccc4Cl)n3c2n1` [Example 111, 9-(2-chlorophenyl)-2-methoxy-7-methylimidazo[1,5-a]pyrido[3,2-e]pyrazine-6-carbonitrile], the IC50 was less than 10 nM.
For the molecule `COc1ccc2nc(C#N)c3c(C)nc(-c4ccc(Cl)cc4Cl)n3c2n1` [Example 112, 9-(2,4-dichlorophenyl)-2-methoxy-7-methylimidazo[1,5-a]pyrido[3,2-e]pyrazine-6-carbonitrile], the IC50 is less than 10 nM.

Usually IC50 stands for the concentration needed to halve the response being measured.

The record behind these values is patent US20090143361A1, “Pyrido[3,2-E]Pyrazines, Process For Preparing The Same, And Their Use As Inhibitors Of Phosphodiesterase 10” (ELBION GMBH, priority 2007, published 2009).
